Reference: a melting point compilation (Tetko et al.; mined from patent text by program, amines drawn as free bases though some values may be those of a salt)

melting point [°C]	SMILES
237 to 238	O=C1c2ccc(Cl)cc2C(=O)N1CC(=O)N1c2ccccc2N(Cc2ccccc2)C(=O)[C@H]2CCC[C@H]21 (relative stereo)
72	O=C(O)CCOc1ccc(CNC(=O)C2Cc3ccccc3N2S(=O)(=O)c2ccc(-c3cccc(C(F)(F)F)c3)cc2)cc1 (configuration not stated)
114 to 117	O=C(O)C1CCN(c2ncc(NS(=O)(=O)c3ccccc3Br)c(NCc3ccccc3)n2)CC1
167 to 168	Cc1oc(-c2ccccc2)nc1CCOc1ccc(C[C@H](OC(C)C)C(=O)O)c2sccc12
88 to 90	CC1(C)C2CC[C@]1(C)C(=O)C(C(=O)Nc1ccc(Cl)c(Cl)c1)C2=O (some centres not stated)
105 to 109	CCc1cc2c(cc1CC)C(=O)C(O)=CC2=O
203 to 204	O=C(O)CCCCCCCn1cnc(-c2ccc(O)cc2)c1-c1ccc(O)cc1
101 to 102	C=C(C)C(=O)Oc1ccc(CNS(C)(=O)=O)cc1
54	C=CCc1ccc2c(c1)CCC2O (configuration not stated)
205 to 208	CS(=O)(=O)c1ccc(Oc2ccc3[nH]c(C4=NCC(CC(=O)O)S4)cc3c2)cn1 (configuration not stated)
266 to 267	Cc1ccc2nc3n(c(=O)c2c1)-c1ccccc1C3=O
178 to 179	CC1=C(/C=C/C(C)=C/C=C/C(C)=C\C(=O)O)C(C)(C)C(=O)CC1
175	Nc1ccc2ccc(Cl)cc2n1
224 to 226	O=C(C1CCN(c2ccncc2)CC1)N1CCN(S(=O)(=O)c2ccc(-c3ccccn3)cc2)CC1
167 to 171	O=Cc1ccc2c(c1)S(=O)(=O)c1ccccc1C=C2
285 to 288	N#CN=C(Nc1cccnc1)NC1(c2ccccc2)CC=CC1
127 to 128	COc1ccc(C(=O)Nc2ccccc2C(O)Cc2ccccn2)cc1 (configuration not stated)
101 to 102	COc1ccc(CS[C@@H]2C[C@@H](C(=O)N(C)OC)N(S(=O)(=O)c3ccc4ccccc4c3)C2)cc1
114 to 115	COC(=O)CNc1cc(O)c(C(C)=O)c(OC)c1
162 to 164	Cc1ccc(C(=O)c2cc(Br)c(CC(=O)O)n2C)cc1
103 to 105	CC(C)[C@H](NC(=O)CCC(=O)c1ccc(F)cc1)C(=O)O
182 to 183	O=C(NCc1ccc(Cl)cc1)c1coc2ccc(C#CCO)cc2c1=O
32 to 34	C#Cc1ccc(C(=O)Cl)cc1
208 to 209	O=C(O)c1cccc(Oc2ncccc2OCCCc2ccncc2)c1
207 to 209	Cc1ccc(C2NCCc3c2[nH]c2ccccc32)cc1 (configuration not stated)

melting point [°C]	SMILES
96 to 97	CCCCCCCCCCN(O)C(=O)NC
181 to 183	CS(=O)(=O)Nc1nc(CCCN2CCN(C(c3ccccc3)c3ccccc3)CC2)cs1
143 to 144	CC1=C(C(=O)OCCCN(C)Cc2ccccc2)C(c2ccccc2C(F)(F)F)c2c(ccnc2OC(C)C)N1 (configuration not stated)
121 to 122	CNC1Cc2ccccc2C1Nc1ccccc1 (configuration not stated)
120 to 121	CC(C)NC(=O)CSCC(=O)c1ccc(-c2ccccc2)cc1
179 to 180	Cc1c(F)cc(C(=O)O)c(Cl)c1Cl
57 to 61	COc1c2c(c(OC)c(OC)c1OC)CC(CCCCCCCCNC(C)=O)C2
281 to 283	CS(=O)(=O)c1ccc(-c2[nH]c3ccc(Cl)cc3c2-c2ccccc2)cc1
155	COc1cc(C)nc(NC(=O)NS(=O)(=O)c2cc([N+](=O)[O-])cs2)n1
80	CCOC(=O)C(C)Oc1cc(-c2ccccc2)nc2ccccc12 (configuration not stated)
129 to 134	CN1CCC(c2c[nH]c3ccc(NC(=O)c4ccc(C#N)cc4)nc23)CC1
165 to 167	Cn1c(COc2ccc(CC3SC(=O)NC3=O)cc2)nc2ccc(OCCc3ccc(C(C)(C)C)c(NC(=O)Nc4ccc(C(F)(F)F)cc4)c3)cc21 (configuration not stated)
> 250	CCc1nn(CC(=O)NN)c(CC)c1Oc1cc(Cl)cc(Cl)c1
244	CCOc1nsc(NC(=O)NC)c1C#N
133 to 135	c1cncc(-c2nc3ncccc3[nH]2)c1
218 to 219	O=C(CCl)Nc1ccc(C(O)(C(F)(F)F)C(F)(F)F)cc1O
177 to 179	Ic1nc(-c2ccccn2)[nH]c1I
198	Cc1ccc(F)c(-c2cncc(OC3SCC(O)C(O)C3O)c2)c1 (configuration not stated)
210	Cc1nnc(-c2ccnc3[nH]c(CCc4ccccc4)cc23)o1
159 to 163	Cc1ccccc1S(=O)(=O)NC(=O)c1ccc2c(c1)CCN2Cc1cccc([N+](=O)[O-])c1
> 300	Cn1c(-c2cccc3[nH]c(-c4ccncc4)cc23)n[nH]c1=O
158 to 160	O=C1CCCC(c2ccc(F)cc2)CN1 (configuration not stated)
136 to 138	C#CCOc1cc(-n2c(OC)nc(C(F)(F)F)cc2=O)c(F)cc1Br
130 to 131	CC(=O)O[C@H]1CC[C@H](c2ccc(C#N)cc2)CC1
> 310	CS(=O)(=O)c1ccc2[nH]c(=O)c(C#N)cc2c1

melting point [°C]	SMILES
> 300	O=C1c2ccccc2C(=O)c2c1nc1c(Cl)cccn21
117 to 118	COC(=O)CCc1ncc2oc(C(=O)OC)c(O)c2c1C(=O)OC
201 to 203	COC(=O)NCCC1CN=C(c2cc3cccc(N(C)S(=O)(=O)c4cccs4)c3[nH]2)S1 (configuration not stated)
293 to 294	O=C(O)c1ccc2oc3ncccc3c(=O)c2c1
160 to 161	COc1ccc(C(=O)Cc2c(Cl)cncc2Cl)c2cc(C(=O)N3CCN(C)CC3)oc12
82	OCCCOc1cccc2sccc12
52 to 58	Cc1noc(NS(=O)(=O)c2ccccc2-c2ccc(C(F)(F)C(C)C)cc2)c1C
204 to 205	ClCc1nc2sc3c(c2c(-c2ccc(Cl)cc2)c1Cl)CCN(Cc1ccccc1)C3
130 to 136	Nc1nc2c(s1)CCN(CC=Cc1ccoc1)CC2
71 to 74	CCCCCCCCSc1ccc(CC(COC(C)=O)(COC(C)=O)NC(C)=O)cc1
111 to 114	O=C(SCC(Cc1ccc(Cl)cc1)C(=O)O)c1ccccc1 (configuration not stated)
132	O=C1C=CC(c2ccccc2)(c2ccccc2)[C@@H]2CN(Cc3ccccc3)C[C@H]12 (racemic)
66 to 68	COC(=O)CNc1cccc(Br)c1
85 to 86	CCCC(=O)c1cnc2ccc(COCc3ccccc3)cc2c1Cl
220 to 221	O=C(O)Cn1c(=S)c2ccccc2n(Cc2ccc(Cl)cc2Cl)c1=O
201 to 202	NC(=O)C1CCc2sc3ccc(F)cc3c2C1 (configuration not stated)
279 to 281	O=C(O)c1ccccc1S(=O)c1cc(Cl)ccc1C(=O)O (configuration not stated)
155 to 160	CNC(=O)Nc1ccc(OCCNCC(O)c2ccc(O)cc2)cc1 (configuration not stated)
> 300	N#Cc1ccc(-c2cn3c(C(F)(F)F)cccc3n2)cc1
148 to 150	O=S(=O)(c1ccc(Cl)cc1)C(c1cc(F)ccc1F)c1cc(NCCc2ccncc2)ncc1Cl (configuration not stated)
185 to 187	O=[N+]([O-])c1cnc(NCC(O)CO)cn1 (configuration not stated)
180 to 182	CN1CCN(c2ccc(Nc3nc(N)c(C(=O)c4c(Cl)cc(Br)c(N)c4Cl)s3)cc2)CC1
148 to 150	CC(=O)OCc1ccc2oc(=O)c(C(=O)Oc3cc(F)ccc3Br)cc2c1
131 to 132	CN(O)C(=O)Nc1cc(Cl)cc(Cl)c1
143 to 144	C=CCNC(=O)C=C(C)N

melting point [°C]	SMILES
35 to 37	CCCCCC(=O)C=CI
65 to 67	CC(=O)Nc1ccc(OC(F)F)c(OC(F)F)c1
158 to 159	CCOC(=O)COc1cccc(C(N)=O)c1
258 to 263	O=C1Nc2cc(F)ccc2C1c1ncnc2nn(C3CCCC3)cc12 (configuration not stated)
141 to 146	CN1CCC(=C2c3ccccc3C=Cc3ccc(C#N)cc32)CC1
145	CCOC(=O)c1nn(C)cc1-c1ccccc1
> 230	CCc1ccc(NC(=O)c2ccccc2CN2C(=O)C3(COc4cc5c(cc43)CCO5)c3ccccc32)cc1 (configuration not stated)
113 to 115	O=C(O)C(=O)c1ccc(OCCCCSc2ccc3ccccc3c2)cc1
208 to 215	Cc1ccc(C(O)(c2ccc(C)cc2)C2CCN(CCCC(O)c3ccc(C(C)(C)C(=O)O)cc3)CC2)cc1 (configuration not stated)
266 to 268	O=C(Nc1ccc(-c2nnn[nH]2)cc1)C(F)(F)C(F)(F)C(F)(F)F
180 to 182	CCCOc1ccccc1-c1nc(O)cc(C(=O)O)n1
297 to 298	O=C(NCCc1ccccc1)c1cc2c(cn1)[nH]c1ccccc12
244 to 246	COc1cc2ccc3c4cc(OCc5ccccc5)c(OC)cc4nnc3c2cc1OC
103 to 105	CCCc1c(OCCCCc2cccc(O)c2O)ccc(C(C)=O)c1O
112 to 113	O=C(c1cccnc1)c1ccc(Cl)c([N+](=O)[O-])c1
160 to 161	CC(=O)Nc1ccn(C2OC(COC(C)=O)C(OC(C)=O)C2O[N+](=O)[O-])c(=O)n1 (configuration not stated)
198 to 200	O=c1ccn(CCO)c(C(O)c2ccccc2)c1O (configuration not stated)
192 to 193	CC(=O)n1c(=O)oc2c3ncccc3ccc21
120 to 124	Cc1cc(F)ccc1-c1nc(NCCO)nc2c1CCC(=O)N2c1ccccc1F
115 to 120	CCCc1nc2c(C)cc(-c3nc4ccccc4n3C)cc2n1Cc1ccc(-c2ccccc2NC(=O)C(F)(F)F)cc1
112	C=CCOc1ccc(C=CC(=O)c2c(O)cc(OC)cc2OC)cc1
295 to 297	O=c1[nH]c2ccc(F)cc2c2cc(CO)nn12

SMILES	melting point [°C]
COC(=O)OC1CCC2C3CCC4=CC(=O)CCC4(C)C3CCC12C (configuration not stated)	140 to 141
O=C(c1nccs1)c1cnn2c(-c3cccc(NC(=O)C4CC4)c3)ccnc12	226 to 229
CN(C)C[C@@H]1C[C@H]1c1c[nH]c2ccc(C#N)cc12 (relative stereo)	120 to 121
C#CC1(O)CCC2(C)C(CCC3C2CCC2(C)C(OC)CCC32)C1 (configuration not stated)	62 to 65
CN(C)C1(c2ccccc2)CCC(CNC(=O)CCCCCc2c[nH]c3ccc(F)cc23)CC1 (configuration not stated)	52 to 54
